From ChEMBL document CHEMBL5120798, “Design and synthesis of an N-benzyl 5-(4-sulfamoylbenzylidene-2-thioxothiazolidin-4-one scaffold as a novel NLRP3 inflammasome inhibitor” (Bioorg Med Chem Lett, 2022)
Active and inactive are the calls of the source. The calls are words filed in the database; no cut-off is given here.

Tests used:
Type in all cases: cell-based
[1] = target: NACHT, LRR and PYD domains-containing protein 3 (Mus musculus) (UniProt Q8R4B8); assay: Inhibition of NLRP3 inflammasome activation in LPS-primed mouse BMDM cells assessed as reduction in LPS/ATP induced cleaved caspase 1 level in supernatant preincubated for 30 mins followed by LPS addition for 3 hrs prior to ATP addition for 30 mins by Western blot analysis; conditions: dose 4-10 µM, time 4.0 hrs, DDE = dose-dependent effect
NACHT, LRR and PYD domains-containing protein 3 (Mus musculus), sequence (Q8R4B8 whole entry, the tested form may be a part): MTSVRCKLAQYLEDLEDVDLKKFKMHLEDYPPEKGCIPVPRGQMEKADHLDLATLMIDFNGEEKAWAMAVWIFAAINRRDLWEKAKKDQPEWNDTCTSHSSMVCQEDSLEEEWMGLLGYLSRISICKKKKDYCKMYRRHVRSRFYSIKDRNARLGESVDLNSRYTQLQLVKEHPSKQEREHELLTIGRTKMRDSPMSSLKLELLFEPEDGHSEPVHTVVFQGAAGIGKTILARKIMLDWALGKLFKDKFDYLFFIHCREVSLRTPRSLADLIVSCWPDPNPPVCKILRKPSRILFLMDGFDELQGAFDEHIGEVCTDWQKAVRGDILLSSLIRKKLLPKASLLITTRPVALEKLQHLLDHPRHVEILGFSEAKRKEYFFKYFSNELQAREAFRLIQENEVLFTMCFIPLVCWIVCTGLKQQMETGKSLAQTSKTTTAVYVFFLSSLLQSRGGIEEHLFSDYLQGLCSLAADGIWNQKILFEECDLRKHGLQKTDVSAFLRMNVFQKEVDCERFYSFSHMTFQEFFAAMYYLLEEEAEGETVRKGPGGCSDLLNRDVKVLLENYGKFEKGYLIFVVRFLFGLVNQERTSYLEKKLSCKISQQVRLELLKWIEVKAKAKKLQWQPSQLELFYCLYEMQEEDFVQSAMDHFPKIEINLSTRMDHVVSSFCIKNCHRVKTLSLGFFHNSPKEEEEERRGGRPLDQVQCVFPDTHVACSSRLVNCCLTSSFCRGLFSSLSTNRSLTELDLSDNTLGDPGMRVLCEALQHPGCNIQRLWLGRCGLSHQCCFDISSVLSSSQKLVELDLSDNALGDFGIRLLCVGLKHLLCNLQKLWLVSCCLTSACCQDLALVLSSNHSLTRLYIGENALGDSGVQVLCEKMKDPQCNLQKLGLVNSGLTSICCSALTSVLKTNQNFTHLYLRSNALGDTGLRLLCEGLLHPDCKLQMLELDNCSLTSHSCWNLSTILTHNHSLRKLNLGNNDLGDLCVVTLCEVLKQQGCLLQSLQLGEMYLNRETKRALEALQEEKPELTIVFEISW

[2] = target: NACHT, LRR and PYD domains-containing protein 3 (Mus musculus) (UniProt Q8R4B8); assay: Inhibition of NLRP3 inflammasome activation in LPS-primed mouse BMDM cells assessed as reduction in LPS/ATP induced cleaved IL-1beta release in supernatant preincubated for 30 mins followed by LPS addition for 3 hrs prior to ATP addition for 30 mins by Western blot analysis; conditions: dose 4-10 µM, time 4.0 hrs, DDE = dose-dependent effect
[3] = target: NACHT, LRR and PYD domains-containing protein 3 (Homo sapiens) (UniProt Q96P20); assay: Inhibition of NLRP3 inflammasome assembly in human THP-1 cells assessed as reduction in ASC oligomers formation
NACHT, LRR and PYD domains-containing protein 3 (Homo sapiens), sequence (Q96P20 whole entry, the tested form may be a part): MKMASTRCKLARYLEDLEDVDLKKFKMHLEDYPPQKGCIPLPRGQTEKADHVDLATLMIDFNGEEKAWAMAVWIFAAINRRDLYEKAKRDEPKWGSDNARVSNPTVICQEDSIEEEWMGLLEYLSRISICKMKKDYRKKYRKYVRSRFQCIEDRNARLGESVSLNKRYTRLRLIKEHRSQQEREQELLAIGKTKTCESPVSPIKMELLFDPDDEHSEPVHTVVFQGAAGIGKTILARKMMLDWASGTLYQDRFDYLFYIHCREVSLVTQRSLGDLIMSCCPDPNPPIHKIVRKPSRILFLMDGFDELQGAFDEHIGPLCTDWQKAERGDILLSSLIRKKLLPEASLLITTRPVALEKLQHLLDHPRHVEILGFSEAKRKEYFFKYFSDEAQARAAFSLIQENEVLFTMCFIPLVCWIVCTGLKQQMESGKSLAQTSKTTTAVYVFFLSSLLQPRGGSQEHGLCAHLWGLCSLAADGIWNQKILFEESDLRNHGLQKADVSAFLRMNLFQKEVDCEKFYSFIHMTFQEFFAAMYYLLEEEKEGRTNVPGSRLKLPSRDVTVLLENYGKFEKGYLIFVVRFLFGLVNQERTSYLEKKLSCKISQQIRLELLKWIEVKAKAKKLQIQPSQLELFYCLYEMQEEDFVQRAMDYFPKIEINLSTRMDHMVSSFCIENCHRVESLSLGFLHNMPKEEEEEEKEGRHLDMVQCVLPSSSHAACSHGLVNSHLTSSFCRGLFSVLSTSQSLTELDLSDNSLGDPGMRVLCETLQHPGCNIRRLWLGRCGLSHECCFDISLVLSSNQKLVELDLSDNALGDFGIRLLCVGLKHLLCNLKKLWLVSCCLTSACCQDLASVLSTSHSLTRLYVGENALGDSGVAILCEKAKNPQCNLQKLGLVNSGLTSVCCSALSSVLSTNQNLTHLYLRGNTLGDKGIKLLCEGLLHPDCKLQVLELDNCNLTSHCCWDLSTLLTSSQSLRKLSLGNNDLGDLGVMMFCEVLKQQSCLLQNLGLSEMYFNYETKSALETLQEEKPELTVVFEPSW

[4] = target: NACHT, LRR and PYD domains-containing protein 3 (Mus musculus) (UniProt Q8R4B8); assay: Inhibition of NLRP3 inflammasome assembly in LPS/nigericin stimulated mouse BMDM cells assessed as reduction in NLRP3 specks; conditions: concentration not given here
[5] = target: NACHT, LRR and PYD domains-containing protein 3 (Mus musculus) (UniProt Q8R4B8); assay: Inhibition of NLRP3 inflammasome activation in LPS-primed mouse BMDM cells assessed as reduction in LPS/ATP induced cleaved IL-1beta release in supernatant at 2 uM preincubated for 30 mins followed by LPS addition for 3 hrs prior to ATP addition for 30 mins by Western blot analysis; conditions: time 4.0 hrs

| SMILES | inhibition [1] | inhibition [2] | inhibition [3] | inhibition [4] [%] | inhibition [5] |
| --- | --- | --- | --- | --- | --- |
| NS(=O)(=O)c1ccc(/C=C2\SC(=S)N(Cc3cccc(Cl)c3)C2=O)cc1 |  |  |  |  | Active |
| CCCCOc1ccc(Cl)cc1CN1C(=O)/C(=C/c2ccc(S(N)(=O)=O)cc2)SC1=S |  |  |  |  | Active |

Second part, the compound after the results:

| inhibition [1] | inhibition [2] | inhibition [3] | inhibition [4] [%] | inhibition [5] | SMILES |
| --- | --- | --- | --- | --- | --- |
| Dde | Dde | Active | 60 |  | COc1ccc(Cl)c(CN2C(=O)/C(=C/c3ccc(S(N)(=O)=O)cc3)SC2=S)c1 |
|  |  |  |  | Active | COc1ccccc1CN1C(=O)/C(=C/c2ccc(S(N)(=O)=O)cc2)SC1=S |
| Dde | Dde | Active | 60 |  | COc1ccc(Cl)cc1CN1C(=O)/C(=C/c2ccc(S(N)(=O)=O)cc2)SC1=S |
